{"source": "paper PMC5428509", "about": "“Irreversible inhibition of BTK kinase by a novel highly selective inhibitor CHMFL-BTK-11 suppresses inflammatory response in rheumatoid arthritis model” (Scientific Reports, 2017)", "assay_in_all_cases": "biochemical", "set-up_in_all_cases": "KinomeScan competition binding panel (DiscoveRx), percent of control at 1 uM", "conditions_in_all_cases": "read-out: Percent Control", "key": {"MET": {"molecular_target": "MET (Homo sapiens, UniProt P08581)", "outline": "(§1)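 KinomeScan technology used to profile binding across a panel of 456 kinases and mutants.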"}, "PIK3CB": {"molecular_target": "PIK3CB (Homo sapiens, UniProt P42338)", "outline": "as §1"}, "INSRR": {"molecular_target": "INSRR (Homo sapiens, UniProt P14616)", "sequence (P14616 whole entry)": "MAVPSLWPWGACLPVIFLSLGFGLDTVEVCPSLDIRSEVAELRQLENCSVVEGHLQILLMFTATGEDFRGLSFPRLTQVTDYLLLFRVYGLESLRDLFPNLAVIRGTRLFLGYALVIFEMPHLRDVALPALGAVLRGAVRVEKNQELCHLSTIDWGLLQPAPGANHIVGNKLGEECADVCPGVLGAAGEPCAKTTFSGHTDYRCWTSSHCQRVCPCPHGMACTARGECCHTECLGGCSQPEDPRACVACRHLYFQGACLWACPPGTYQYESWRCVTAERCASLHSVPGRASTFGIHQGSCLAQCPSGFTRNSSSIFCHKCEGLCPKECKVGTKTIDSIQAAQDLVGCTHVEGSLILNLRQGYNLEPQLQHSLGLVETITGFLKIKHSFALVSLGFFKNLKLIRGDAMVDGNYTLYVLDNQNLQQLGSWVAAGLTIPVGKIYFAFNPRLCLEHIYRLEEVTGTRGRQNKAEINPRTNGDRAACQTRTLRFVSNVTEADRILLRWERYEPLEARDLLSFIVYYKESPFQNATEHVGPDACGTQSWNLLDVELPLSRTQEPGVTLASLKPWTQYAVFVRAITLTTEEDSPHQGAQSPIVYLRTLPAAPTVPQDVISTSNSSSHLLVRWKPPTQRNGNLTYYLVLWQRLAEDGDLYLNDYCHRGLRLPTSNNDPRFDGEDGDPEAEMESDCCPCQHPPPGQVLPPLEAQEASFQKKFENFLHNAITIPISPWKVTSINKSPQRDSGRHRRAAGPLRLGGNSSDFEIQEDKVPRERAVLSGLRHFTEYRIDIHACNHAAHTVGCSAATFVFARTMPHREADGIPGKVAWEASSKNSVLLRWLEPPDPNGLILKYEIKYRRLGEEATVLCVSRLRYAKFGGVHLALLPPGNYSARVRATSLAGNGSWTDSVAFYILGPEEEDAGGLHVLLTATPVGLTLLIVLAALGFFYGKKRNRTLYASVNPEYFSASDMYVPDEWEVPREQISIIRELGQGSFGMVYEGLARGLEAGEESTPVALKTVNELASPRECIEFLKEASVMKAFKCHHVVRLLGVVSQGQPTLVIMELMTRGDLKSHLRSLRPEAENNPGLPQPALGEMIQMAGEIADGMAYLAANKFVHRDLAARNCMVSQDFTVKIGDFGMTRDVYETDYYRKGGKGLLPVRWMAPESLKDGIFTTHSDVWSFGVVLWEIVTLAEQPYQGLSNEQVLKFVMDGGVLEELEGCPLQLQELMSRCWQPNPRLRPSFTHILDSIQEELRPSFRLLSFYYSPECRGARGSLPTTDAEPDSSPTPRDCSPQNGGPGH", "outline": "as §1"}, "CSF1R": {"molecular_target": "CSF1R (Homo sapiens, UniProt P07333)", "outline": "as §1"}, "PIM3": {"molecular_target": "PIM3 (Homo sapiens, UniProt Q86V86)", "outline": "as §1"}, "FLT1": {"molecular_target": "FLT1 (Homo sapiens, UniProt P17948)", "outline": "as §1"}, "RET(V804L)": {"molecular_target": "RET(V804L) (Homo sapiens, UniProt P07949, V804L)", "sequence (P07949 whole entry V804L)": "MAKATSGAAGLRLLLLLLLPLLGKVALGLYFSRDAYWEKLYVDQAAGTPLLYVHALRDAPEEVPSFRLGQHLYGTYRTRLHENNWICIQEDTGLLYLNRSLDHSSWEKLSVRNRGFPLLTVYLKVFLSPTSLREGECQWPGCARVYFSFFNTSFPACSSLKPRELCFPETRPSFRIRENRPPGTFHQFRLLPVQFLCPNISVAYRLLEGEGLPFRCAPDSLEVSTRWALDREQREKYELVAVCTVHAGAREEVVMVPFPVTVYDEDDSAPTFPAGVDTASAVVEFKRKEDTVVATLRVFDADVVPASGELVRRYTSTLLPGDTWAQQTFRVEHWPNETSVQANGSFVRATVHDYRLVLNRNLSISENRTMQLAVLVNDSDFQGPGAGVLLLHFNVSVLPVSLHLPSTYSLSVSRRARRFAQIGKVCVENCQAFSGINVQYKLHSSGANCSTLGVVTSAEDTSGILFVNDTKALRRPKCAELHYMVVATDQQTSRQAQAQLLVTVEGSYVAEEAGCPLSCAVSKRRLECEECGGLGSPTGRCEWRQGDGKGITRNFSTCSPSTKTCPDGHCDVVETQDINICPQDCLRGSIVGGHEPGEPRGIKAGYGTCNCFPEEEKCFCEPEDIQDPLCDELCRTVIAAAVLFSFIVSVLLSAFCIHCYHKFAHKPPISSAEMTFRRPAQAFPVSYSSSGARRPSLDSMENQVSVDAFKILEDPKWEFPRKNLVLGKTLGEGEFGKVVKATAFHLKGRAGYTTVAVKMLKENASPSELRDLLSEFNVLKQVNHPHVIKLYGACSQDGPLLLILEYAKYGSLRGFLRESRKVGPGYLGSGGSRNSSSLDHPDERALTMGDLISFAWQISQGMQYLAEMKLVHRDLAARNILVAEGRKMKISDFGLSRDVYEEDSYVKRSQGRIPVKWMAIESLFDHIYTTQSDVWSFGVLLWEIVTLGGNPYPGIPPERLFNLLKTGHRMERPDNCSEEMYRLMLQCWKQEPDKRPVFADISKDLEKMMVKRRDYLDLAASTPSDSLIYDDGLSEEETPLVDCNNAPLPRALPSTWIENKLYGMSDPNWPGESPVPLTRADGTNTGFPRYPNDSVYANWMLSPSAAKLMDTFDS", "outline": "as §1"}, "[1]": {"molecular_target": "T1, RPS6KA4(Kin.Dom.2-C-terminal) (Homo sapiens, UniProt O75676)", "T1 construct": "Kin.Dom.2-C-terminal", "outline": "as §1"}, "CDK7": {"molecular_target": "CDK7 (Homo sapiens, UniProt P50613)", "sequence (P50613 whole entry)": "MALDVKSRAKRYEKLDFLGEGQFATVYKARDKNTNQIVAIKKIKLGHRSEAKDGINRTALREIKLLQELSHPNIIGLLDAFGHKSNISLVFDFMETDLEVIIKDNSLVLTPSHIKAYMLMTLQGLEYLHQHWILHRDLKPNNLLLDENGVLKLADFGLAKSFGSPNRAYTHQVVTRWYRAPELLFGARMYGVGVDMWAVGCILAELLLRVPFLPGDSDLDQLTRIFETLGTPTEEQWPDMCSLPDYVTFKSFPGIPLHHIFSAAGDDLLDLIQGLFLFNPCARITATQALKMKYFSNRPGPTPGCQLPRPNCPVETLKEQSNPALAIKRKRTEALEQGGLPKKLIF", "outline": "as §1"}, "MINK": {"molecular_target": "T2, MINK (Homo sapiens, UniProt Q8N4C8)", "T2 construct": "gene MINK1", "outline": "as §1"}, "MELK": {"molecular_target": "MELK (Homo sapiens, UniProt Q14680)", "outline": "as §1"}, "FER": {"molecular_target": "FER (Homo sapiens, UniProt P16591)", "sequence (P16591 whole entry)": "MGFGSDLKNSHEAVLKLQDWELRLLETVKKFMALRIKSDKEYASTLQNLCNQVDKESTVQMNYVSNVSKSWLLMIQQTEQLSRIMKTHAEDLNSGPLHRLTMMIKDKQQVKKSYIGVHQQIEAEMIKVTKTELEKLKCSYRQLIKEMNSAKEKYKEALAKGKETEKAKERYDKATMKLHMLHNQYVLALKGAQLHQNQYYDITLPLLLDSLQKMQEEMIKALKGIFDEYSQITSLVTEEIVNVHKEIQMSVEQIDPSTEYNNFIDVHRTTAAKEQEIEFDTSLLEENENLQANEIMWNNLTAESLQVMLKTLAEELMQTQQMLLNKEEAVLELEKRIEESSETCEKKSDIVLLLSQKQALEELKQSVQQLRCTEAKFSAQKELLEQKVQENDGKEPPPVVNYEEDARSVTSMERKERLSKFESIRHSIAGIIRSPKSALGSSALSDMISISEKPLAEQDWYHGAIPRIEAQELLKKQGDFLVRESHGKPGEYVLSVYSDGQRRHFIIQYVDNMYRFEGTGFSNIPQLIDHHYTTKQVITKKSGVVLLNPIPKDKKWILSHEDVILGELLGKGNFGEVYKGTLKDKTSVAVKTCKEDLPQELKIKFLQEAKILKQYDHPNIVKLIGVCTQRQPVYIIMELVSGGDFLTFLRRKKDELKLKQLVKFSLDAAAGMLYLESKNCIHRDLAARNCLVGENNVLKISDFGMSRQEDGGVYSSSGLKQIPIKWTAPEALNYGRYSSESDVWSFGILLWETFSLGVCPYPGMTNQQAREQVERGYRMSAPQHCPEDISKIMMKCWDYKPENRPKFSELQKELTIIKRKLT", "outline": "as §1"}, "SRC": {"molecular_target": "SRC (Homo sapiens, UniProt P12931)", "sequence (P12931 whole entry)": "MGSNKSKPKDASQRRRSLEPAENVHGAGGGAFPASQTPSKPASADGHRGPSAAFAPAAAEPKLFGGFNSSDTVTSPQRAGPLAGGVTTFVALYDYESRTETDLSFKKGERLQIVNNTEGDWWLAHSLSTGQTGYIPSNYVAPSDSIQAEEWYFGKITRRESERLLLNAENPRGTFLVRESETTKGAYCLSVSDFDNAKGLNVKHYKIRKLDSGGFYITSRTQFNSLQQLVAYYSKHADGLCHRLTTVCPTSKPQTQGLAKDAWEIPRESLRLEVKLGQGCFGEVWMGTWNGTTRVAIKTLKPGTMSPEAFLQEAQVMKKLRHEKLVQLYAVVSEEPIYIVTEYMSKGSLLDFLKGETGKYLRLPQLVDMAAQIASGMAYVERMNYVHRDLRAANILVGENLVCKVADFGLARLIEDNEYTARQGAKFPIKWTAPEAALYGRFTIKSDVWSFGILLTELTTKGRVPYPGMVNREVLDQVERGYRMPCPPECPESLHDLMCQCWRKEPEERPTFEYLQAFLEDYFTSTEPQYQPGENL", "outline": "as §1"}, "ACVR2B": {"molecular_target": "ACVR2B (Homo sapiens, UniProt Q13705)", "outline": "as §1"}, "EPHB4": {"molecular_target": "EPHB4 (Homo sapiens, UniProt P54760)", "outline": "as §1"}, "IGF1R": {"molecular_target": "IGF1R (Homo sapiens, UniProt P08069)", "outline": "as §1"}, "PIM1": {"molecular_target": "PIM1 (Homo sapiens, UniProt P11309)", "sequence (P11309 whole entry)": "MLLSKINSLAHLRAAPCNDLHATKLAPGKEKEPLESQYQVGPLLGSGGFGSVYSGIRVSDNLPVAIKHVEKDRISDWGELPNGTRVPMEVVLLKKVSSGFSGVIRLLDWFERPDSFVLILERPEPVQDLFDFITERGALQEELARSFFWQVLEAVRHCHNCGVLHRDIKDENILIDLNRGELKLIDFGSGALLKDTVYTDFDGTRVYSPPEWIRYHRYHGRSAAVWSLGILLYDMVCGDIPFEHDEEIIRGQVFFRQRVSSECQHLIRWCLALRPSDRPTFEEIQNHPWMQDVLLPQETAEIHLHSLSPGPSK", "outline": "as §1"}, "CLK1": {"molecular_target": "CLK1 (Homo sapiens, UniProt P49759)", "sequence (P49759 whole entry)": "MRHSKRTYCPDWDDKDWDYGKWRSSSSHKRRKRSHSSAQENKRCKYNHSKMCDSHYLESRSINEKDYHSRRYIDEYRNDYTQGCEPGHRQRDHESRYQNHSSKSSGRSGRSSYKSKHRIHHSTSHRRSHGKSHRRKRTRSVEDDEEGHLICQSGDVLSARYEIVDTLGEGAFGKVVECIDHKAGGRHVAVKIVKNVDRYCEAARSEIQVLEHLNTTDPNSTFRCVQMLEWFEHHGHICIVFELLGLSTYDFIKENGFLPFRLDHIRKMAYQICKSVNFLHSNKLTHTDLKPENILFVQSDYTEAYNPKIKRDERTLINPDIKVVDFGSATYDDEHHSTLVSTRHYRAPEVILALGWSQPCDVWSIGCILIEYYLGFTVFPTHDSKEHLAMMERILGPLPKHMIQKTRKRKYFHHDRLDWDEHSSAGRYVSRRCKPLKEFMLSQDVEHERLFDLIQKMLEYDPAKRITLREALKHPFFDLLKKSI", "outline": "as §1"}, "[2]": {"molecular_target": "T3, ABL1(M351T)-phosphorylated (Homo sapiens, UniProt P00519, M351T)", "T3 construct": "phosphorylated", "outline": "as §1"}, "STK16": {"molecular_target": "STK16 (Homo sapiens, UniProt O75716)", "outline": "as §1"}, "AURKB": {"molecular_target": "AURKB (Homo sapiens, UniProt Q96GD4)", "outline": "as §1"}, "ERBB2": {"molecular_target": "ERBB2 (Homo sapiens, UniProt P04626)", "outline": "as §1"}, "ACVR2A": {"molecular_target": "ACVR2A (Homo sapiens, UniProt P27037)", "outline": "as §1"}, "PKAC-beta": {"molecular_target": "T4, PKAC-beta (Homo sapiens, UniProt P22694)", "T4 construct": "gene PRKACB", "outline": "as §1"}, "KIT(D816H)": {"molecular_target": "KIT(D816H) (Homo sapiens, UniProt P10721, D816H)", "outline": "as §1"}}, "data": [{"smiles": "C=CC(=O)Nc1cc(-n2c(=O)ccc3cnc4ccc(-n5cccn5)cc4c32)ccc1C", "note": "[CHMFL-BTK-11]", "values": [{"measurement": "remaining binding at 1 µM", "setting": "MET", "result": 100, "unit": "%"}, {"measurement": "remaining binding at 1 µM", "setting": "PIK3CB", "result": 100, "unit": "%"}, {"measurement": "remaining binding at 1 µM", "setting": "INSRR", "result": 100, "unit": "%"}, {"measurement": "remaining binding at 1 µM", "setting": "CSF1R", "result": 91, "unit": "%"}, {"measurement": "remaining binding at 1 µM", "setting": "PIM3", "result": 95, "unit": "%"}, {"measurement": "remaining binding at 1 µM", "setting": "FLT1", "result": 88, "unit": "%"}, {"measurement": "remaining binding at 1 µM", "setting": "RET(V804L)", "result": 97, "unit": "%"}, {"measurement": "remaining binding at 1 µM", "setting": "[1]", "result": 100, "unit": "%"}, {"measurement": "remaining binding at 1 µM", "setting": "CDK7", "result": 89, "unit": "%"}, {"measurement": "remaining binding at 1 µM", "setting": "MINK", "result": 64, "unit": "%"}, {"measurement": "remaining binding at 1 µM", "setting": "MELK", "result": 73, "unit": "%"}, {"measurement": "remaining binding at 1 µM", "setting": "FER", "result": 98, "unit": "%"}, {"measurement": "remaining binding at 1 µM", "setting": "SRC", "result": 98, "unit": "%"}, {"measurement": "remaining binding at 1 µM", "setting": "ACVR2B", "result": 95, "unit": "%"}, {"measurement": "remaining binding at 1 µM", "setting": "EPHB4", "result": 100, "unit": "%"}, {"measurement": "remaining binding at 1 µM", "setting": "IGF1R", "result": 100, "unit": "%"}, {"measurement": "remaining binding at 1 µM", "setting": "PIM1", "result": 82, "unit": "%"}, {"measurement": "remaining binding at 1 µM", "setting": "CLK1", "result": 92, "unit": "%"}, {"measurement": "remaining binding at 1 µM", "setting": "[2]", "result": 72, "unit": "%"}, {"measurement": "remaining binding at 1 µM", "setting": "STK16", "result": 91, "unit": "%"}, {"measurement": "remaining binding at 1 µM", "setting": "AURKB", "result": 94, "unit": "%"}, {"measurement": "remaining binding at 1 µM", "setting": "ERBB2", "result": 98, "unit": "%"}, {"measurement": "remaining binding at 1 µM", "setting": "ACVR2A", "result": 100, "unit": "%"}, {"measurement": "remaining binding at 1 µM", "setting": "PKAC-beta", "result": 100, "unit": "%"}, {"measurement": "remaining binding at 1 µM", "setting": "KIT(D816H)", "result": 100, "unit": "%"}]}]}
